Consider two compounds from US12129247B2, “Administration regime for nitrocatechols” (BIAL-PORTELA & CA, S.A., priority 2011, dated 2024).

For data set [1] the following is noted: in vivo; cited from earlier work.
A short description of data set [2]: Levodopa pharmacokinetics in Parkinson's Disease patients after single COMPOUND A 25, 50, 100 mg (Example 3c). In kind it is in vivo, human (Parkinson's Disease patients). The note with it: for Cmax / AUC(0-t) / half-life / Tmax: human, in vivo, oral; for AUC(0-t): read-out: levodopa AUC0-6; for half-life: read-out: levodopa t1/2 (converted). The procedure: This study was a three-center, double-blind, randomised, placebo-controlled, cross-over study to investigate the tolerability and effect a single administration of three dosages of COMPOUND A (25, 50 and 100 mg) on the levodopa pharmacokinetics, motor response, and erythrocyte soluble catechol-O-methyltransferase activity in 10 Parkinson's Disease patients concomitantly treated with levodopa/dopa-decarboxylase inhibitor.
Subjects were eligible if they presented: a diagnosis of PD according to the UK PDS Brain Bank diagnostic criteria; predictable signs of end-of-dose deterioration despite “optimal” levodopa/AADCi therapy; being treated with a stable regimen of 3 to 8 doses of standard release levodopa/AADCi 100/25 mg per day within at least 1 week prior to randomisation; modified Hoehn and Yahr stage of less than 5 in the off-state; and/or mean duration of OFF stage ≥1.5 h during waking hours. Concomitant anti-Parkinsonian medication (other than apomorphine, entacapone or tolcapone) was allowed in stable doses for at least 4 weeks prior to randomisation.
The study consisted of four consecutive treatment periods, corresponding to the 4 different treatment options (Compound A 25 mg, 50 mg, 100 mg or placebo). In each of the four treatment periods, subjects were to be admitted to the study site 2 days prior to receiving the administration of Compound A/Placebo (Day 1) and were to remain hospitalized (“in-patient”) until 48 h after receiving the administration of Compound A/Placebo. The washout period between administrations was to be at least 10 days. A follow-up visit was to occur approximately 2 weeks after the last treatment administration or early discontinuation. During each period, the COMPOUND A/Placebo capsules were to be co-administered with the morning dose of levodopa/carbidopa 100/25 mg (1 tablet of Sinemet® 25/100) or levodopa/benserazide 100/25 mg (1 tablet of Madopar®/Restex® 125) on Day 3.

Where [3] appears, read: Day 2, 24 h before administration of Compound A, Group 1 (placebo group), Sinemet 25/100 or Madopar/Restex 125.
The mark [4] stands for this setting: Day 4, Group 1, 24 h after Placebo.
The mark [5] stands for this setting: 25 mg, Day 2, 24 h before administration of Compound A, Group 2 (25 mg group).
Where [6] appears, read: 50 mg, Day 2, 24 h before administration of Compound A, Group 3 (50 mg group).
[7] abbreviates: 100 mg, Day 2, 24 h before administration of Compound A, Group 4 (100 mg group).
Where [8] appears, read: Day 3, Group 1, levodopa/AADCi with Placebo.

As a reminder, the Cmax is the highest concentration seen after dosing. A word on the Tmax: it is the time from dosing to the highest level.

Read-outs that look alike come from different tables or passages of the source.

Consider `Cc1ccc(C(=O)c2cc(O)c(O)c([N+](=O)[O-])c2)cc1` [Tolcapone, 3,4-dihydroxy-4′-methyl-5-nitrobenzophenone], for which, in data set [1], the terminal half life result is given as “around 2 hours”.
With `N[C@@H](Cc1ccc(O)c(O)c1)C(=O)O` [levodopa, reference compound], the levodopa tmax in data set [2] (setting [3]) and in data set [2] (setting [4]) was 0.5 h throughout. In addition, the Cmax is 2240 ng/mL in data set [2] (setting [5]); 2090 ng/mL in data set [2] (setting [6]); 1880 ng/mL in data set [2] (setting [7]); 2510 ng/mL in data set [2] (setting [3]); 2100 ng/mL in data set [2] (setting [8]); 2130 ng/mL in data set [2] (setting [4]). The AUC(0-t) was found to be 4290 ng·h/mL in data set [2] (setting [5]); 3830 ng·h/mL in data set [2] (setting [6]); 4140 ng·h/mL in data set [2] (setting [7]); 4320 ng·h/mL in data set [2] (setting [3]); 3960 ng·h/mL in data set [2] (setting [8]); 3820 ng·h/mL in data set [2] (setting [4]). In addition, the half-life in data set [2] (setting [5]) was 1.63 h; in data set [2] (setting [6]), 1.88 h; in data set [2] (setting [7]), 1.78 h; in data set [2] (setting [3]), 1.7 h; in data set [2] (setting [8]), 1.6 h; in data set [2] (setting [4]) it was 1.96 h. The Tmax in data set [2] (setting [8]) came out at 0.5 h; in data set [2] (Day 2, 24 h before administration of Compound A, Group 2 (25 mg group)) it was 0.5 h; in data set [2] (Day 2, 24 h before administration of Compound A, Group 3 (50 mg group)), 0.5 h; in data set [2] (Day 2, 24 h before administration of Compound A, Group 4 (100 mg group)), 1 h.
